Several values for one entry are separate records, joined by “and”; a condition that tells them apart may be missing. Equal values may be shown once. Inconclusive results and toxic doses are left out.

For this experiment, the system named is CD2F1 mice, L1210 leukemia ip, survival T/C. Put plainly: NCI In Vivo Anticancer Drug Screen. Data for tumor model L1210 Leukemia (intraperitoneal) in CD2F1 (CDF1) mice. The note with it: higher = longer survival. As to the method:
The antitumor activity of compounds was measured in mice bearing transplantable tumors. Survival or tumor size were measured and the results are expressed as the measurement made in the treated group (T) divided by the measurement made in the vehicle treated control group (C). The tumor model used in this assay is L1210 Leukemia (intraperitoneal) in CD2F1 (CDF1) mice

[1] abbreviates: endpoint: mean survival time, dose: 100.0 mg/kg/injection, schedule: Q01DX009 (ip), vehicle: saline with Tween-80.
The mark [2] stands for this setting: endpoint: mean survival time, dose: 100.0 mg/kg/injection, schedule: Q04DX003 (ip), vehicle: saline with Tween-80.
Setting [3] is: endpoint: mean survival time, dose: 200.0 mg/kg/injection, schedule: Q01DX009 (ip), vehicle: saline with Tween-80.
[4] abbreviates: endpoint: mean survival time, dose: 200.0 mg/kg/injection, schedule: Q04DX003 (ip), vehicle: saline with Tween-80.
The mark [5] stands for this setting: endpoint: mean survival time, dose: 400.0 mg/kg/injection, schedule: Q04DX003 (ip), vehicle: saline with Tween-80.
Where [6] appears, read: endpoint: mean survival time, dose: 50.0 mg/kg/injection, schedule: Q01DX009 (ip), vehicle: saline with Tween-80.

As for `Cc1c(Br)c(=O)[nH]c2ccccc12`, the T/C was 96 % of control under setting [1]; 101 % of control under setting [2]; 96 % of control under setting [3]; 98 % of control under setting [4]; 94 % of control (endpoint: mean survival time, dose: 400.0 mg/kg/injection, schedule: Q01DX009 (ip), vehicle: saline with Tween-80); 101 % of control under setting [5].
On to `CCCCC(C)(C)C`, for which the T/C reads like this: under setting [2], 99 % of control; under setting [4], 99 % of control; under setting [5], 114 % of control.
Regarding `COC(=O)c1c[nH]c(=S)n1C(C)c1ccccc1` (stereo not drawn), the T/C is 105 % of control under setting [1]; 93 % of control under setting [2]; 106 % of control under setting [3]; 95 % of control under setting [4]; 101 % of control under setting [5].
For `Cn1c(=O)c2c(nc(N3CCOCC3)n2CC(O)CF)n(C)c1=O` (stereo not drawn), the T/C runs as follows: (endpoint: mean survival time, dose: 12.5 mg/kg/injection, schedule: Q01DX005 (ip), vehicle: distilled water + Tween-80) 95 % of control; (endpoint: mean survival time, dose: 25.0 mg/kg/injection, schedule: Q01DX005 (ip), vehicle: distilled water + Tween-80) 98 % of control; (endpoint: mean survival time, dose: 50.0 mg/kg/injection, schedule: Q01DX005 (ip), vehicle: distilled water + Tween-80) 103 % of control; (endpoint: mean survival time, dose: 100.0 mg/kg/injection, schedule: Q01DX005 (ip), vehicle: distilled water + Tween-80) 97 % of control; (endpoint: mean survival time, dose: 200.0 mg/kg/injection, schedule: Q01DX005 (ip), vehicle: distilled water + Tween-80) 104 % of control.
As to `CC[C@@]1(OC(=O)C(N)CCC(=O)O)C(=O)OCc2c1cc1n(c2=O)Cc2cc3ccccc3nc2-1` (stereo partly drawn), the T/C runs as follows: (endpoint: median survival time, dose: 6.85 mg/kg/injection, schedule: Q04DX002 (ip), vehicle: water) 107 % of control and 108 % of control; (endpoint: median survival time, dose: 10.27 mg/kg/injection, schedule: Q04HX004 (iv), vehicle: water) 120 % of control and 111 % of control; (endpoint: median survival time, dose: 13.69 mg/kg/injection, schedule: Q04DX002 (ip), vehicle: water) 113 % of control; (endpoint: median survival time, dose: 27.39 mg/kg/injection, schedule: Q04DX002 (ip), vehicle: water) 122 % of control; (endpoint: median survival time, dose: 41.08 mg/kg/injection, schedule: Q04HX004 (iv), vehicle: water) 184 % of control and 197 % of control; (endpoint: median survival time, dose: 54.78 mg/kg/injection, schedule: Q04DX002 (ip), vehicle: water) 154 % of control and 170 % of control. In addition, the T/C is 204 % of control and 211 % of control (endpoint: median survival time, dose: 54.78 mg/kg/injection, schedule: Q04HX004 (iv), vehicle: water); 208 % of control (endpoint: median survival time, dose: 109.6 mg/kg/injection, schedule: Q04DX002 (ip), vehicle: water).
Consider `c1ccc2c(c1)Cc1cc3ccccc3nc1-2`, for which the T/C was 102 % of control (endpoint: mean survival time, dose: 75.0 mg/kg/injection, schedule: Q01DX001 (ip), vehicle: saline); 97 % of control (endpoint: mean survival time, dose: 150.0 mg/kg/injection, schedule: Q01DX001 (ip), vehicle: saline); 101 % of control (endpoint: mean survival time, dose: 300.0 mg/kg/injection, schedule: Q01DX001 (ip), vehicle: saline).
Regarding `Cc1nnc(-c2cn(C3OC(CO)C(O)C3O)c3ncnc(N)c23)nc1C` (stereo not drawn), the T/C runs as follows: (endpoint: mean survival time, dose: 100.0 mg/kg/injection, schedule: Q01DX005 (ip), vehicle: saline) 97 % of control; (endpoint: mean survival time, dose: 200.0 mg/kg/injection, schedule: Q01DX005 (ip), vehicle: saline) 96 % of control.
Take `COc1ccc(N2C(=O)CSC2=S)cc1`: the T/C is 102 % of control under setting [2], 96 % of control under setting [4] and 102 % of control under setting [5].
As to `CC[NH-].[Cl][Pt+2][Cl].[NH2-]`, the T/C (endpoint: mean survival time, dose: 1.56 mg/kg/injection, schedule: Q04DX003 (ip), vehicle: water) is 118 % of control; the T/C (endpoint: mean survival time, dose: 3.13 mg/kg/injection, schedule: Q04DX003 (ip), vehicle: distilled water + Tween-80) is 119 % of control; the T/C (endpoint: mean survival time, dose: 6.25 mg/kg/injection, schedule: Q04DX003 (ip), vehicle: water) is 124 % of control; the T/C (endpoint: mean survival time, dose: 25.0 mg/kg/injection, schedule: Q04DX003 (ip), vehicle: distilled water + Tween-80) is 98 % of control.
With `C/C=C/C=C1/OC(C)=C(C(C)=O)C1=O`, the T/C is, setting by setting: (endpoint: mean survival time, dose: 12.5 mg/kg/injection, schedule: Q01DX009 (ip), vehicle: saline with Tween-80) 96 % of control and 97 % of control; (endpoint: mean survival time, dose: 25.0 mg/kg/injection, schedule: Q01DX009 (ip), vehicle: saline with Tween-80) 90 % of control and 95 % of control; under setting [6], 90 % of control and 109 % of control; under setting [1], 100 % of control and 106 % of control; under setting [3], 100 % of control.
Turning to `CCOC(=O)CC(COC)C(Br)(C(=O)OCC)C(=O)OCC` (stereo not drawn), the T/C runs as follows: (endpoint: mean survival time, dose: 1.56 mg/kg/injection, schedule: Q01DX009 (ip), vehicle: Klucel (hydroxypropylcellulose) (HPC)) 104 % of control; (endpoint: mean survival time, dose: 3.13 mg/kg/injection, schedule: Q01DX009 (ip), vehicle: Klucel (hydroxypropylcellulose) (HPC)) 107 % of control; (endpoint: mean survival time, dose: 6.25 mg/kg/injection, schedule: Q01DX009 (ip), vehicle: Klucel (hydroxypropylcellulose) (HPC)) 102 % of control; (endpoint: mean survival time, dose: 12.5 mg/kg/injection, schedule: Q01DX009 (ip), vehicle: Klucel (hydroxypropylcellulose) (HPC)) 104 % of control; (endpoint: mean survival time, dose: 25.0 mg/kg/injection, schedule: Q01DX009 (ip), vehicle: Klucel (hydroxypropylcellulose) (HPC)) 104 % of control.
`COC12[C@@H]3N[C@@H]3CN1C1=C(C(=O)C(NCCSSCCNC3=C(C)C(=O)C4=C(C3=O)C(COC(N)=O)[C@]3(OC)C5N[C@@H]5CN43)=C(C)C1=O)[C@@H]2COC(N)=O` (stereo partly drawn): the T/C was 109 % of control (endpoint: mean survival time, dose: 1.5 mg/kg/injection, schedule: Q01DX001 (ip), vehicle: distilled water + Tween-80); 110 % of control (endpoint: mean survival time, dose: 1.5 mg/kg/injection, schedule: Q01DX001 (ip), vehicle: water); 121 % of control (endpoint: mean survival time, dose: 3.0 mg/kg/injection, schedule: Q01DX001 (ip), vehicle: water); 122 % of control (endpoint: mean survival time, dose: 6.0 mg/kg/injection, schedule: Q01DX001 (ip), vehicle: water); 162 % of control (endpoint: mean survival time, dose: 12.0 mg/kg/injection, schedule: Q01DX001 (ip), vehicle: distilled water + Tween-80); 151 % of control (endpoint: mean survival time, dose: 12.0 mg/kg/injection, schedule: Q01DX001 (ip), vehicle: water). Also, the T/C was 104 % of control (endpoint: mean survival time, dose: 24.0 mg/kg/injection, schedule: Q01DX001 (ip), vehicle: water); 108 % of control (endpoint: median survival time, dose: 0.05 mg/kg/injection, schedule: Q01DX009 (ip), vehicle: other); 119 % of control (endpoint: median survival time, dose: 0.1 mg/kg/injection, schedule: Q01DX009 (ip), vehicle: other); 119 % of control (endpoint: median survival time, dose: 0.2 mg/kg/injection, schedule: Q01DX009 (ip), vehicle: other); 104 % of control (endpoint: median survival time, dose: 0.2 mg/kg/injection, schedule: Q04DX003 (ip), vehicle: other); 119 % of control (endpoint: median survival time, dose: 0.4 mg/kg/injection, schedule: Q01DX001 (ip), vehicle: other). The T/C runs as follows: (endpoint: median survival time, dose: 0.4 mg/kg/injection, schedule: Q04DX003 (ip), vehicle: other) 110 % of control; (endpoint: median survival time, dose: 0.8 mg/kg/injection, schedule: Q01DX001 (ip), vehicle: other) 116 % of control; (endpoint: median survival time, dose: 0.8 mg/kg/injection, schedule: Q04DX003 (ip), vehicle: other) 124 % of control; (endpoint: median survival time, dose: 1.6 mg/kg/injection, schedule: Q03DX003 (ip), vehicle: other) 151 % of control; (endpoint: median survival time, dose: 3.2 mg/kg/injection, schedule: Q01DX009 (ip), vehicle: other) 161 % of control; (endpoint: median survival time, dose: 3.2 mg/kg/injection, schedule: Q03DX003 (ip), vehicle: other) 154 % of control and 176 % of control. Further, the T/C reads like this: (endpoint: median survival time, dose: 3.2 mg/kg/injection, schedule: Q04DX003 (ip), vehicle: other) 165 % of control; (endpoint: median survival time, dose: 6.4 mg/kg/injection, schedule: Q01DX009 (ip), vehicle: other) 124 % of control; (endpoint: median survival time, dose: 6.4 mg/kg/injection, schedule: Q03DX003 (ip), vehicle: other) 173 % of control and 187 % of control; (endpoint: median survival time, dose: 6.4 mg/kg/injection, schedule: Q04DX003 (ip), vehicle: other) 178 % of control; (endpoint: median survival time, dose: 9.6 mg/kg/injection, schedule: Q01DX001 (ip), vehicle: other) 168 % of control; (endpoint: median survival time, dose: 9.6 mg/kg/injection, schedule: Q03DX003 (ip), vehicle: other) 154 % of control. Also, the T/C by setting is: (endpoint: median survival time, dose: 9.6 mg/kg/injection, schedule: Q04DX003 (ip), vehicle: other) 169 % of control; (endpoint: median survival time, dose: 19.2 mg/kg/injection, schedule: Q01DX001 (ip), vehicle: other) 160 % of control.
On to `O=C(Nc1c(Cl)cccc1Cl)OCCOc1ccc(Cl)cc1`, for which the T/C was 94 % of control under setting [6], 105 % of control under setting [1] and 105 % of control under setting [3].

The values above are taken from PubChem BioAssay AID256 (DTP/NCI, 2004).
